From patent US5789431A, “Naphthoquinone antitumor compound and method” (The University of North Carolina at Chapel Hill, priority 1996, dated 1998)

Experiments:
NCI-H23 = assay: in vitro non-small cell lung cancer cell growth inhibition (NCI screen)
NCI-H460 = assay: as above
SW 620 = assay: in vitro colon cancer cell growth inhibition (NCI screen)
RXF-393 = assay: in vitro renal cancer cell growth inhibition (NCI screen)
KM 20L2 = assay: in vitro colon cancer cell growth inhibition (NCI screen)
U 251 = assay: in vitro CNS cancer cell growth inhibition (NCI screen)
OVCAR-3 = assay: in vitro ovarian cancer cell growth inhibition (NCI screen)
NCI-H522 = assay: in vitro non-small cell lung cancer cell growth inhibition (NCI screen)
DLD-1 = assay: in vitro colon cancer cell growth inhibition (NCI screen)
SF-539 = assay: in vitro CNS cancer cell growth inhibition (NCI screen)
HT 29 = assay: in vitro colon cancer cell growth inhibition (NCI screen)
SNB-19 = assay: in vitro CNS cancer cell growth inhibition (NCI screen)
OVCAR-4 = assay: in vitro ovarian cancer cell growth inhibition (NCI screen); conditions: OVACR-4
LXFL 529 = assay: in vitro non-small cell lung cancer cell growth inhibition (NCI screen)
COLO-205 = assay: in vitro colon cancer cell growth inhibition (NCI screen)
TK-10 = assay: in vitro renal cancer cell growth inhibition (NCI screen)
HL-60(TB) = assay: in vitro leukemia cell growth inhibition (NCI screen)
SK-MEL-28 = assay: in vitro melanoma cell growth inhibition (NCI screen)
M19-MEL = assay: as above
K-562 = assay: in vitro leukemia cell growth inhibition (NCI screen)
human tumor cell lines = type: cell-based; conditions: for cytotoxicity against tumor cells (in words): cancer cell line panel
CCRF-CEM = assay: in vitro leukemia cell growth inhibition (NCI screen)
RPMI-8226 = assay: as above
KM 12 = assay: in vitro colon cancer cell growth inhibition (NCI screen)
HCT-116 = assay: as above
MOLT-4 = assay: in vitro leukemia cell growth inhibition (NCI screen)
SR = assay: as above
UACC-62 = assay: in vitro melanoma cell growth inhibition (NCI screen)
M14 = assay: as above
IGROV1 = assay: in vitro ovarian cancer cell growth inhibition (NCI screen)
SK-MEL-2 = assay: in vitro melanoma cell growth inhibition (NCI screen)
HOP-18 = assay: in vitro non-small cell lung cancer cell growth inhibition (NCI screen)
SNB-75 = assay: in vitro CNS cancer cell growth inhibition (NCI screen)
HCT-15 = assay: in vitro colon cancer cell growth inhibition (NCI screen)
LOX1MVI = assay: in vitro melanoma cell growth inhibition (NCI screen)
MDA-MB-435 = assay: in vitro breast cancer cell growth inhibition (NCI screen)
UACC-257 = assay: in vitro melanoma cell growth inhibition (NCI screen)
MDA-N = assay: in vitro breast cancer cell growth inhibition (NCI screen)
HOP-92 = assay: in vitro non-small cell lung cancer cell growth inhibition (NCI screen)
MCF-7 = assay: in vitro breast cancer cell growth inhibition (NCI screen)
SK-MEL-5 = assay: in vitro melanoma cell growth inhibition (NCI screen)
HOP-62 = assay: in vitro non-small cell lung cancer cell growth inhibition (NCI screen)
786-0 = assay: in vitro renal cancer cell growth inhibition (NCI screen)
SF-268 = assay: in vitro CNS cancer cell growth inhibition (NCI screen)
SF-295 = assay: as above
MALME-3M = assay: in vitro melanoma cell growth inhibition (NCI screen)
OVCAR-8 = assay: in vitro ovarian cancer cell growth inhibition (NCI screen)
OVCAR-5 = assay: as above

Structure (SMILES): O=C1c2ccccc2C(=O)c2[nH]c(Cc3ccccc3F)nc21 [Compound 4b]
- cytotoxicity log GI50 (NCI-H23): -4.56 M
- cytotoxicity log GI50 (NCI-H460): -4.47 M
- cytotoxicity log GI50 (SW 620): -4.42 M
- cytotoxicity log GI50 (RXF-393): -4.69 M
- cytotoxicity log GI50 (KM 20L2): -4.47 M
- cytotoxicity log GI50 (U 251): -5.10 M
- cytotoxicity log GI50 (OVCAR-3): -4.84 M
- cytotoxicity log GI50 (NCI-H522): -4.67 M
- cytotoxicity log GI50 (DLD-1): -4.79 M
- cytotoxicity log GI50 (SF-539): -4.51 M
- cytotoxicity log GI50 (HT 29): -4.49 M
- cytotoxicity log GI50 (SNB-19): -4.42 M
- cytotoxicity log GI50 (OVCAR-4): -4.55 M
- cytotoxicity log GI50 (LXFL 529): -4.50 M
- cytotoxicity log GI50 (COLO-205): -4.47 M
- cytotoxicity log GI50 (TK-10): -4.53 M
- cytotoxicity log GI50 (HL-60(TB)): -4.45 M

Structure (SMILES): O=C(Cc1ccccc1F)NC1=C(Cl)C(=O)c2ccccc2C1=O [Compound 2i, 2-(2-Fluorophenyl)acetamido-3-chloro-1,4-naphthoguinone]
- cytotoxicity log GI50 (SK-MEL-28): -6.34 M
- cytotoxicity log GI50 (M19-MEL): -6.36 M
- cytotoxicity log GI50 (NCI-H23): -6.25 M
- cytotoxicity log GI50 (NCI-H460): -6.15 M
- cytotoxicity log GI50 (K-562): -6.53 M
- GI50 (human tumor cell lines; Homo sapiens, cancer cell panel, general / most cell lines, read-out: logGI50 values in the cancer cell line panel (converted)): 0.0251 to 2.51 µM
- cytotoxicity log GI50 (CCRF-CEM): -6.54 M
- cytotoxicity log GI50 (U 251): -6.48 M
- cytotoxicity log GI50 (RPMI-8226): -6.44 M
- cytotoxicity log GI50 (KM 12): -6.29 M
- cytotoxicity log GI50 (HCT-116): -6.37 M
- cytotoxicity log GI50 (NCI-H522): -6.67 M
- cytotoxicity log GI50 (MOLT-4): -6.60 M
- cytotoxicity log GI50 (SF-539): -6.62 M
- cytotoxicity log GI50 (OVCAR-4): -6.22 M
- cytotoxicity log GI50 (SR): -6.32 M
- cytotoxicity log GI50 (UACC-62): -6.48 M
- cytotoxicity log GI50 (LXFL 529): -6.40 M
- cytotoxicity log GI50 (M14): -6.29 M
- cytotoxicity log GI50 (IGROV1): -6.17 M
- cytotoxicity log GI50 (SK-MEL-2): -6.21 M
- cytotoxicity log GI50 (HOP-18): -6.18 M
- cytotoxicity log GI50 (SNB-75): -6.33 M
- cytotoxicity log GI50 (HL-60(TB)): -6.55 M

Structure (SMILES): COC(=O)CCC(=O)NC1=C(NCc2ccccc2)C(=O)c2ccccc2C1=O [Compound 55]
- cytotoxicity log GI50 (HCT-15): -4.77 M
- cytotoxicity log GI50 (NCI-H23): -4.67 M
- cytotoxicity log GI50 (NCI-H460): -4.74 M
- cytotoxicity log GI50 (SW 620): -4.70 M
- cytotoxicity log GI50 (OVCAR-3): -5.40 M
- cytotoxicity log GI50 (LOX1MVI): -4.66 M
- cytotoxicity log GI50 (MDA-MB-435): -4.72 M
- cytotoxicity log GI50 (NCI-H522): -4.72 M
- cytotoxicity log GI50 (UACC-257): -4.78 M
- cytotoxicity log GI50 (MDA-N): -4.79 M
- cytotoxicity log GI50 (SF-539): -4.70 M
- cytotoxicity log GI50 (HOP-92): -4.80 M
- cytotoxicity log GI50 (MCF-7): -4.76 M
- cytotoxicity log GI50 (SNB-19): -4.66 M
- cytotoxicity log GI50 (OVCAR-4): -4.73 M
- cytotoxicity log GI50 (UACC-62): -4.76 M
- cytotoxicity log GI50 (SK-MEL-5): -4.92 M
- cytotoxicity log GI50 (M14): -4.73 M
- cytotoxicity log GI50 (COLO-205): -4.69 M
- cytotoxicity log GI50 (IGROV1): -4.75 M
- cytotoxicity log GI50 (SK-MEL-2): -4.73 M
- cytotoxicity log GI50 (HL-60(TB)): -4.66 M

Structure (SMILES): NC1=C(NC(=O)Cc2ccccc2F)C(=O)c2ccccc2C1=O [Compound 3b]
- cytotoxicity log GI50 (M19-MEL): -5.35 M
- cytotoxicity log GI50 (HCT-15): -4.62 M
- cytotoxicity log GI50 (RXF-393): -4.46 M
- cytotoxicity against tumor cells (in words) (human tumor cell lines): inactive against all representative cancer cell lines
- cytotoxicity log GI50 (U 251): -4.44 M
- cytotoxicity log GI50 (OVCAR-3): -5.08 M
- cytotoxicity log GI50 (HOP-62): -4.59 M
- cytotoxicity log GI50 (NCI-H522): -4.67 M
- cytotoxicity log GI50 (786-0): -4.57 M
- cytotoxicity log GI50 (UACC-257): -4.53 M
- cytotoxicity log GI50 (DLD-1): -4.78 M
- cytotoxicity log GI50 (SF-539): -4.57 M
- cytotoxicity log GI50 (SF-268): -4.46 M
- cytotoxicity log GI50 (HOP-92): -4.65 M
- cytotoxicity log GI50 (SNB-19): -4.45 M
- cytotoxicity log GI50 (SF-295): -4.49 M
- cytotoxicity log GI50 (UACC-62): -4.42 M
- cytotoxicity log GI50 (SK-MEL-2): -4.84 M
- cytotoxicity log GI50 (MALME-3M): -4.87 M
- cytotoxicity log GI50 (SNB-75): -4.73 M

Structure (SMILES): NC1=C(NC(=O)Cc2ccc(F)cc2)C(=O)c2ccccc2C1=O [Compound 3c]
- cytotoxicity log GI50 (M19-MEL): -5.16 M
- cytotoxicity log GI50 (NCI-H23): -4.87 M
- cytotoxicity log GI50 (RXF-393): -4.68 M
- cytotoxicity against tumor cells (in words) (human tumor cell lines): inactive against all representative cancer cell lines
- cytotoxicity log GI50 (CCRF-CEM): -4.55 M
- cytotoxicity log GI50 (U 251): -5.09 M
- cytotoxicity log GI50 (OVCAR-3): -4.88 M
- cytotoxicity log GI50 (HOP-62): -4.56 M
- cytotoxicity log GI50 (NCI-H522): -4.79 M
- cytotoxicity log GI50 (DLD-1): -4.95 M
- cytotoxicity log GI50 (SF-268): -4.54 M
- cytotoxicity log GI50 (HOP-92): -4.48 M
- cytotoxicity log GI50 (SNB-19): -4.63 M
- cytotoxicity log GI50 (OVCAR-8): -4.47 M
- cytotoxicity log GI50 (IGROV1): -4.71 M
- cytotoxicity log GI50 (SNB-75): -4.49 M
- cytotoxicity log GI50 (TK-10): -4.57 M
- cytotoxicity log GI50 (HL-60(TB)): -4.59 M

Structure (SMILES): COC(=O)CCC(=O)NC1=C(Nc2ccccc2)C(=O)c2ccccc2C1=O [Compound 54]
- cytotoxicity log GI50 (SK-MEL-28): -5.59 M
- cytotoxicity log GI50 (OVCAR-5): -5.41 M
- cytotoxicity log GI50 (OVCAR-3): -5.52 M
- cytotoxicity log GI50 (MDA-MB-435): -5.67 M
- cytotoxicity log GI50 (UACC-257): -5.56 M
- cytotoxicity log GI50 (MDA-N): -5.69 M
- cytotoxicity log GI50 (SF-539): -5.11 M
- cytotoxicity log GI50 (MCF-7): -5.75 M
- cytotoxicity log GI50 (UACC-62): -5.75 M
- cytotoxicity log GI50 (M14): -5.71 M
- cytotoxicity log GI50 (SK-MEL-2): -5.41 M
- cytotoxicity log GI50 (MALME-3M): -5.76 M
- cytotoxicity log GI50 (HL-60(TB)): -5.46 M
